Source: patent US7691858B2, “Kinase inhibitors and methods of use thereof” (TargeGen, Inc., priority 2006, dated 2010)

Key:
PKCs = target: T1, PKCs (Homo sapiens, UniProt Q02156); test: Kinase panel screen; format: biochemical; conditions: Compound I and ATP 10 μM
T1 construct: purchased Upstate USA or Invitrogen (commercial screening service)

JAK3 = target: T2, JAK3 (Homo sapiens, UniProt P52333); test: Kinase panel screen; format: biochemical; conditions: Compound I and ATP 10 μM
T2 construct: purchased Upstate USA or Invitrogen (contract screening service)

Rse = target: T3, Rse (Homo sapiens, UniProt Q06418); test: Kinase panel screen; format: biochemical; conditions: Compound I and ATP 10 μM
T3 construct: purchased Upstate USA or Invitrogen (commercial screening service)

NEK6 = target: T4, NEK6 (Homo sapiens, UniProt Q9HC98); test: Kinase panel screen; format: biochemical; conditions: Compound I and ATP 10 μM
T4 construct: purchased Upstate USA or Invitrogen (commercial screening service)

Arg = target: T5, Arg (Homo sapiens, UniProt P42684); test: Kinase panel screen; format: biochemical; conditions: Compound I and ATP 10 μM
T5 construct: purchased Upstate USA or Invitrogen (contract screening service)

MEK1 = target: T6, MEK1 (Homo sapiens, UniProt Q02750); test: Kinase panel screen; format: biochemical; conditions: Compound I and ATP 10 μM
T6 construct: purchased Upstate USA or Invitrogen (commercial screening service)

ROCK-II = target: T7, ROCK-II (Homo sapiens, UniProt O75116); test: Kinase panel screen; format: biochemical; conditions: Compound I and ATP 10 μM
T7 construct: purchased Upstate USA or Invitrogen (commercial screening service)

Akt2 = Akt2 (Homo sapiens, UniProt P31751); test: Kinase panel screen; format: biochemical; conditions: Compound I at 1 μM and ATP at the apparent Km
ALK = target: T8, ALK (Homo sapiens, UniProt Q9UM73); test: Kinase panel screen; format: biochemical; conditions: Compound I and ATP 10 μM
T8 construct: purchased Upstate USA or Invitrogen (contract screening service)

Yes = Yes (Homo sapiens, UniProt P07947); test: Kinase panel screen; format: biochemical; conditions: Compound I and ATP 10 μM
GSK3a = target: T9, GSK3a (Homo sapiens, UniProt P49840); test: Kinase panel screen; format: biochemical; conditions: Compound I and ATP 10 μM
T9 construct: purchased Upstate USA or Invitrogen (commercial screening service)

Akt1 = target: T10, Akt1 (Homo sapiens, UniProt P31749); test: Kinase panel screen; format: biochemical; conditions: Compound I at 1 μM and ATP at the apparent Km
T10 construct: purchased Upstate USA or Invitrogen (commercial screening service)

NEK2 = target: T11, NEK2 (Homo sapiens, UniProt P51955); test: Kinase panel screen; format: biochemical; conditions: Compound I and ATP 10 μM
T11 construct: purchased Upstate USA or Invitrogen (commercial screening service)

ASK1 = target: T12, ASK1 (Homo sapiens, UniProt Q99683); test: Kinase panel screen; format: biochemical; conditions: Compound I and ATP 10 μM
T12 construct: purchased Upstate USA or Invitrogen (contract screening service)

ZAP-70 = target: T13, ZAP-70 (Homo sapiens, UniProt P43403); test: Kinase panel screen; format: biochemical; conditions: Compound I and ATP 10 μM
T13 construct: purchased Upstate USA or Invitrogen (commercial screening service)

CDK2 = target: T14, CDK2 (Homo sapiens, UniProt P24941); test: Kinase panel screen; format: biochemical; conditions: Compound I and ATP 10 μM
T14 construct: purchased Upstate USA or Invitrogen (commercial screening service)

PKC0 = target: T15, PKC0 (Homo sapiens, UniProt Q04759); test: Kinase panel screen; format: biochemical; conditions: Compound I and ATP 10 μM
T15 construct: purchased Upstate USA or Invitrogen (commercial screening service)

PKBa = target: T16, PKBa (Homo sapiens, UniProt P31749); test: Kinase panel screen; format: biochemical; conditions: read-out: Percent Control, PKBa
T16 construct: purchased Upstate USA or Invitrogen (contract screening service)

CDK1 = target: T17, CDK1 (Homo sapiens, UniProt P06493); test: Kinase panel screen; format: biochemical; conditions: Compound I and ATP 10 μM
T17 construct: purchased Upstate USA or Invitrogen (commercial screening service)

BRK = target: T18, BRK (Homo sapiens, UniProt Q13882); test: Kinase panel screen; format: biochemical; conditions: Compound I and ATP 10 μM
T18 construct: purchased Upstate USA or Invitrogen (commercial screening service)

CDK6 = target: T19, CDK6 (Homo sapiens, UniProt Q00534); test: Kinase panel screen; format: biochemical; conditions: Compound I and ATP 10 μM
T19 construct: purchased Upstate USA or Invitrogen (contract screening service)

NEK7 = target: T20, NEK7 (Homo sapiens, UniProt Q8TDX7); test: Kinase panel screen; format: biochemical; conditions: Compound I and ATP 10 μM
T20 construct: purchased Upstate USA or Invitrogen (commercial screening service)

FGFR4 = target: T21, FGFR4 (Homo sapiens, UniProt P22455); test: Kinase panel screen; format: biochemical; conditions: Compound I and ATP 10 μM
T21 construct: purchased Upstate USA or Invitrogen (contract screening service)

Fgr = target: T22, Fgr (Homo sapiens, UniProt P09769); test: Kinase panel screen; format: biochemical; conditions: Compound I and ATP 10 μM
T22 construct: purchased Upstate USA or Invitrogen (contract screening service)

TAK1 = target: T23, TAK1 (Homo sapiens, UniProt O43318); test: Kinase panel screen; format: biochemical; conditions: Compound I and ATP 10 μM
T23 construct: purchased Upstate USA or Invitrogen (contract screening service)

SAPK2b = target: T24, SAPK2b (Homo sapiens, UniProt Q15759); test: Kinase panel screen; format: biochemical; conditions: Compound I and ATP 10 μM
T24 construct: purchased Upstate USA or Invitrogen (commercial screening service)

MINK = target: T25, MINK (Homo sapiens, UniProt Q8N4C8); test: Kinase panel screen; format: biochemical; conditions: Compound I and ATP 10 μM
T25 construct: purchased Upstate USA or Invitrogen (contract screening service)

PKD2 = target: T26, PKD2 (Homo sapiens, UniProt Q9BZL6); test: Kinase panel screen; format: biochemical; conditions: Compound I and ATP 10 μM
T26 construct: purchased Upstate USA or Invitrogen (contract screening service)

EC = EC proliferation; format: cell-based; conditions: inhibitors at 10 μM; 24, 48, 72 h
Excerpt: Applicants therefore compared the compounds profiled in Table 1 for their effects on cell proliferation.

cKit = target: T27, cKit (Homo sapiens, UniProt P10721); test: Kinase panel screen; format: biochemical; conditions: Compound I and ATP 10 μM
T27 construct: purchased Upstate USA or Invitrogen (commercial screening service)

cSrc = target: T28, cSrc (Homo sapiens, UniProt P12931); test: Kinase panel screen; format: biochemical; conditions: Compound I and ATP 10 μM
T28 construct: purchased Upstate USA or Invitrogen (commercial screening service)

[1] = system: VE-cadherin phosphorylation; test: VEGF-induced VE-cadherin phosphorylation in EC (Western blot); format: cell-based; conditions: 10 uM Compound I, EC with VEGF
Procedure: FIG. 3. Inhibition of cell proliferation and signaling. (a) EC were cultured in the presence of vehicle (DMSO) or PI3K inhibitors (all at 10 μM); cell proliferation was assessed either 24 (open bar), 48 (grey bar), or 72 h (black bar) later.
Western blots: Cell cultures were rinsed twice with PBS and then lysed using RIPA buffer (100 mM Tris, 150 mM NaCl, 2 mM CaCl2, 1% deoxycholic acid, 1% Triton X-100, 0.1% SDS, pH 7.5) containing PMSF (2 mM), NaF (500 mM), aprotinin (10 μg/ml), leupeptin (10 μg/ml) and vanadate (1 mM). Tissue samples were placed in ice-cold RIPA buffer and processed to lysates using a FastPrep homogenizer (QBiogene, Carlsbad, Calif.). Lysates were centrifuged at 15,000×g followed by assay for total protein using the bicinchoninic acid method (Pierce Biotechnology, Rockford, Ill.), then loaded at equal protein concentration onto gels for SDS-PAGE electrophoresis and Western blotting. For phosphorylated VE-cadherin detection blots were probed with primary antibody (Santa Cruz Biotechnology, Santa Cruz, Calif.) followed by a chemiluminescent detection system (Pierce Biotechnology). The same techniques were used to detect both phosphorylated and total ERK and Akt, except that primary antibodies were supplied by Cell Signaling Technology (Beverly, Mass.) and BD Biosciences (San Jose, Calif.), respectively.

Rsk1 = target: T29, Rsk1 (Rattus norvegicus, UniProt Q63531); test: Kinase panel screen; format: biochemical; conditions: Compound I and ATP 10 μM
T29 construct: purchased Upstate USA or Invitrogen (commercial screening service)

EphA2 = EphA2 (Homo sapiens, UniProt P29317); test: Kinase panel screen; format: biochemical; conditions: Compound I and ATP 10 μM
Hck = target: T30, Hck (Homo sapiens, UniProt P08631); test: Kinase panel screen; format: biochemical; conditions: Compound I and ATP 10 μM
T30 construct: purchased Upstate USA or Invitrogen (commercial screening service)

T2 sequence (P52333 whole entry): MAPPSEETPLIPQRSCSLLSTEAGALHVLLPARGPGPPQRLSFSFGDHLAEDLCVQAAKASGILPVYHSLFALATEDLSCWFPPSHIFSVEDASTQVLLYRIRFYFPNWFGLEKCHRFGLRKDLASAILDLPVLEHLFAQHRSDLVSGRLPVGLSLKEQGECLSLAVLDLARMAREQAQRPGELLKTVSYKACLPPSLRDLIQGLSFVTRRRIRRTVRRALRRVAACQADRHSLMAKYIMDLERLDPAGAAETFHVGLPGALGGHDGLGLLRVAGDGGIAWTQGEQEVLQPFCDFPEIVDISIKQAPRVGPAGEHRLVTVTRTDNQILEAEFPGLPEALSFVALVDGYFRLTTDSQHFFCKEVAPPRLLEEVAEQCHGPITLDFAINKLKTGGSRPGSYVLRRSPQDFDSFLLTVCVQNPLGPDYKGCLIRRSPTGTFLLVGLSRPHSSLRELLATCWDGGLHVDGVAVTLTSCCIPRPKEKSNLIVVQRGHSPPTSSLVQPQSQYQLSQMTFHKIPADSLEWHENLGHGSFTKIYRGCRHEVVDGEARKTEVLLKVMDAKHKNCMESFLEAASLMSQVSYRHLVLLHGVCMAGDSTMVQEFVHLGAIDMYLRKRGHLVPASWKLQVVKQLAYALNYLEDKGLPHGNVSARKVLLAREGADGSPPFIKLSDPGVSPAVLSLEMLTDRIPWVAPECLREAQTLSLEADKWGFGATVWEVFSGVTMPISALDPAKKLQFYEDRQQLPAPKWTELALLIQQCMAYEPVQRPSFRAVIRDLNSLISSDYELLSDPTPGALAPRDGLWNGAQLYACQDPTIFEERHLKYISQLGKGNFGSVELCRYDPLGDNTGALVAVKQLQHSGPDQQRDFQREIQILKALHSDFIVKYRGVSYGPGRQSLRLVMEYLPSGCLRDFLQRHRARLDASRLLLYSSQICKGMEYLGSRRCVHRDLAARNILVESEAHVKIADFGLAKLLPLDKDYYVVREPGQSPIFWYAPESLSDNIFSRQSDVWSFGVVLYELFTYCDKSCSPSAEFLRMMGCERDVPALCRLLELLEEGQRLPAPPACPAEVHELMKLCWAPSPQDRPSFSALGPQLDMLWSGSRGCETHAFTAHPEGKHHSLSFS
Chain of EphA2 (P29317 24-976): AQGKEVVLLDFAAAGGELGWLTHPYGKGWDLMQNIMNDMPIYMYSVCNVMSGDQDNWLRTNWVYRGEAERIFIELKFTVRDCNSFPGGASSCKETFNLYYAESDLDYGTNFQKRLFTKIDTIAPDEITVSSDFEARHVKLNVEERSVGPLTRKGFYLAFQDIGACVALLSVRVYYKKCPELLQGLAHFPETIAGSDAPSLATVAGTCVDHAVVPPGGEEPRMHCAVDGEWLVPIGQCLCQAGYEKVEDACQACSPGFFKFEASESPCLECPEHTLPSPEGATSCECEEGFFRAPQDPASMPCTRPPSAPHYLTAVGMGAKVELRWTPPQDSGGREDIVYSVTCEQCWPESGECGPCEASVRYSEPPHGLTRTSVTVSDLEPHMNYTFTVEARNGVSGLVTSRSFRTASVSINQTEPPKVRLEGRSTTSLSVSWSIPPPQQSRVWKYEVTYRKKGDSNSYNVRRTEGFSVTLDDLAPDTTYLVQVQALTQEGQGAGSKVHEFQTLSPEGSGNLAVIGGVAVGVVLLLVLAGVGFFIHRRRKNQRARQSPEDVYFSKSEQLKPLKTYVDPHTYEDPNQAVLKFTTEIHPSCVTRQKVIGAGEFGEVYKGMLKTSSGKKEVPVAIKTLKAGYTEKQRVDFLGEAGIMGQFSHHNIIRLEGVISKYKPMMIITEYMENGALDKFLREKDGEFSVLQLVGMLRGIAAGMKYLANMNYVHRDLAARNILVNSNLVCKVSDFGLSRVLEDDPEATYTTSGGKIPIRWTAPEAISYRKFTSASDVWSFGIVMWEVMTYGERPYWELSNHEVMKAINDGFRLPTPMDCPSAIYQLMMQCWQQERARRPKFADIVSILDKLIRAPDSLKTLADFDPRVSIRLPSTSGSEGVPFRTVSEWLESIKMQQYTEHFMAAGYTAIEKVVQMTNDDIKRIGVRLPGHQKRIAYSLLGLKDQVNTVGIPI
T23 sequence (O43318 1-303 limits assumed): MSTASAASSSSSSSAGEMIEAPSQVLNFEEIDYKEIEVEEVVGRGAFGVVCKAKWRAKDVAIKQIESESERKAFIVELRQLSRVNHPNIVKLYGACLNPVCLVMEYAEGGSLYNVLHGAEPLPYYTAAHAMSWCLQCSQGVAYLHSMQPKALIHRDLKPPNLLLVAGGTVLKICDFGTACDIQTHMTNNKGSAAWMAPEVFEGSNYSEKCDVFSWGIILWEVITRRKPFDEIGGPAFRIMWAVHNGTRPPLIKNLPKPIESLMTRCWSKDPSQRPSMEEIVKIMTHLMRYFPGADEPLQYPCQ
T1 sequence (Q02156 whole entry): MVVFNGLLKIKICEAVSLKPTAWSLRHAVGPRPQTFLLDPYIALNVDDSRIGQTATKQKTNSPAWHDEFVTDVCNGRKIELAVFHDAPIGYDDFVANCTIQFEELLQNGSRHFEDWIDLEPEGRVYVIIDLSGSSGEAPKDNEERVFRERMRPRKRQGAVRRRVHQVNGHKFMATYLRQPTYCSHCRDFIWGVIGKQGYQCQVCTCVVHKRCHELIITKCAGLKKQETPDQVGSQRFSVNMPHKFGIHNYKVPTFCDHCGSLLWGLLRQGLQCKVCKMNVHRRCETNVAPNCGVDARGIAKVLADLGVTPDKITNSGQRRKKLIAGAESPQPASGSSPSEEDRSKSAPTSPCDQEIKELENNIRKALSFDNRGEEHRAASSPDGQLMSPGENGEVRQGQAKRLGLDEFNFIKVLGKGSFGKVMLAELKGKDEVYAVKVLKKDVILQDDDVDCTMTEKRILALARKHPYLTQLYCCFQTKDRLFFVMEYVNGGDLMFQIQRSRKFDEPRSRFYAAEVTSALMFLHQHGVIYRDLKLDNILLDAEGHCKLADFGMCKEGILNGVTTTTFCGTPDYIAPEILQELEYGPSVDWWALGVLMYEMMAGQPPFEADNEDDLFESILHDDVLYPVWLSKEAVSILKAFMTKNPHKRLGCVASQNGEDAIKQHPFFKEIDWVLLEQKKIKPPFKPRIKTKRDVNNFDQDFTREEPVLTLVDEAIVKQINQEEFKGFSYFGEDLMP
T6 sequence (Q02750 whole entry): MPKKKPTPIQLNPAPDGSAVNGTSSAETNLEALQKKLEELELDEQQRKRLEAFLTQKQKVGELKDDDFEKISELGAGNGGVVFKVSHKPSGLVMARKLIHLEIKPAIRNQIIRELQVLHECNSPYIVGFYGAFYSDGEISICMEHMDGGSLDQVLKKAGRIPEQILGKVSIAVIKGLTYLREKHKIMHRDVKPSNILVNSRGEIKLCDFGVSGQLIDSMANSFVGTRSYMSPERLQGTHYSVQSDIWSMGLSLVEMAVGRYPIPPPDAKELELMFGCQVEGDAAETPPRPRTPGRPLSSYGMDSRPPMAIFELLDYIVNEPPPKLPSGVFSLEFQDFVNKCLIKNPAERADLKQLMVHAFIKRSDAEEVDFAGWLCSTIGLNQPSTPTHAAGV
T21 sequence (P22455 22-802): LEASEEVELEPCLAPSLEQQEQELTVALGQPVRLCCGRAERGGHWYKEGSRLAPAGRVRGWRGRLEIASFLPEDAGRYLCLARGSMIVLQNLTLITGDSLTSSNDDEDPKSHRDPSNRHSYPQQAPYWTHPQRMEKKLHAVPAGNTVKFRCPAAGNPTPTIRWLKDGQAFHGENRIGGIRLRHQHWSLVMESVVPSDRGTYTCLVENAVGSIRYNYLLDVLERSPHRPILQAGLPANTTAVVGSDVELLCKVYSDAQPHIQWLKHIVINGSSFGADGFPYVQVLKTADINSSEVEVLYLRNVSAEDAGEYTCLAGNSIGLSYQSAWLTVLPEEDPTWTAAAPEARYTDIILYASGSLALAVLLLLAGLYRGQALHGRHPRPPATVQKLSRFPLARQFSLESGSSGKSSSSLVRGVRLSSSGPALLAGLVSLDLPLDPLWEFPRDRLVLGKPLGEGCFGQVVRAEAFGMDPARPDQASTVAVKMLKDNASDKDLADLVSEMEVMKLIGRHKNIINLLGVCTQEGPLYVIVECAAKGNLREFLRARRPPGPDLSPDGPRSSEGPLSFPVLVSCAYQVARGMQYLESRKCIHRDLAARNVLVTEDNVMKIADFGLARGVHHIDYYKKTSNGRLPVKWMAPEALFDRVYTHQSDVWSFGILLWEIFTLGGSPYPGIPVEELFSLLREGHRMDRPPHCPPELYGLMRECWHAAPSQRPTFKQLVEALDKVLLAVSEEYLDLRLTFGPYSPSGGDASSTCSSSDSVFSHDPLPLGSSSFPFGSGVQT
T29 sequence (Q63531 whole entry): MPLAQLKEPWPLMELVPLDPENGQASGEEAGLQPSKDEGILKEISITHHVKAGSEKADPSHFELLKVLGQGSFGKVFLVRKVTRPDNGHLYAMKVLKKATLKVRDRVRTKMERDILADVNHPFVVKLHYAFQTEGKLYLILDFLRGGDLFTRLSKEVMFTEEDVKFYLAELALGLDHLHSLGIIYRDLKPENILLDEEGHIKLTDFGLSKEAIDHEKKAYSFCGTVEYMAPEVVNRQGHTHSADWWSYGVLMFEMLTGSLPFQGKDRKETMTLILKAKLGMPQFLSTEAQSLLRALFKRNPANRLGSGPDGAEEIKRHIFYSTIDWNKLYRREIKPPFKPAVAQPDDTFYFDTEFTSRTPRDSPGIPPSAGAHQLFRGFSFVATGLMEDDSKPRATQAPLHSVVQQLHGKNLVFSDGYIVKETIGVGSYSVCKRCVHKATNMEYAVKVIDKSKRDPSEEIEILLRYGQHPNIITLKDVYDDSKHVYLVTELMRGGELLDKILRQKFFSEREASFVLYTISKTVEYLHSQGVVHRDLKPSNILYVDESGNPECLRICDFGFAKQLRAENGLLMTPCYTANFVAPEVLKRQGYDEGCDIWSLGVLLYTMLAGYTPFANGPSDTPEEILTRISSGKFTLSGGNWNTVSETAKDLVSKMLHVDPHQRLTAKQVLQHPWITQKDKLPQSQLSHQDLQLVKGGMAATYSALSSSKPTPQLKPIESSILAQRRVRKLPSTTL

## Nc1nc(N)c2nc(-c3cccc(O)c3)c(-c3cccc(O)c3)nc2n1 [Compound I, 6,7-bis-(3-hydroxyphenyl)-pteridine-2,4-diamine]
PKCs
  Percent Control, PKCs: 69%
JAK3
  Percent Control, JAK3: 99%
Rse
  Percent Control, Rse: 93%
NEK6
  Percent Control, NEK6: 97%
Arg
  Percent Control, Arg: 43%
MEK1
  Percent Control, MEK1: 94%
ROCK-II
  Percent Control, ROCK-II: 81%
Akt2
  Percent Control, Akt2*: 103%
ALK
  Percent Control, ALK: 48%
Yes
  Percent Control, Yes: 30%
GSK3a
  Percent Control, GSK3a: 62%
Akt1
  Percent Control, Akt1*: 96%
NEK2
  Percent Control, NEK2: 98%
ASK1
  Percent Control, ASK1: 105%
ZAP-70
  Percent Control, ZAP-70: 96%
CDK2
  Percent Control, CDK2 (second entry): 77%
PKC0
  Percent Control, PKC0: 73%
PKBa
  remaining activity at 10 µM: 62%
CDK1
  Percent Control, CDK1: 54%
BRK
  Percent Control, BRK: 79%
CDK6
  Percent Control, CDK6: 83%
NEK7
  Percent Control, NEK7: 99%
FGFR4
  Percent Control, FGFR4: 94%
Fgr
  Percent Control, Fgr: 72%
TAK1
  Percent Control, TAK1: 65%
SAPK2b
  Percent Control, SAPK2b: 87%
MINK
  Percent Control, MINK: 88%
PKD2
  Percent Control, PKD2: 37%
EC
  effect on EC proliferation: no effects
cKit
  Percent Control, cKit: 96%
cSrc
  Percent Control, cSrc: 53%
[1]
  VEGF signaling culminating in VE-cadherin phosphorylation: interrupt
Rsk1
  Percent Control, Rsk1 (r): 86%
EphA2
  Percent Control, EphA2: 29%
Hck
  Percent Control, Hck: 67%
